Measurements from patent US6355799B1, “Substituted benzene compounds, process for their preparation, and herbicidal and defoliant compositions containing them” (ISK Americas Incorporated, priority 1997, dated 2002).

Experiments:
Assay type in all cases: in vivo
[1] = system: upland rice (Oryza sp., var. Tebonnet, RICE); experiment: Post-emerge test, crop safety; details: rating scale 0-100 (0 no damage, 100 complete death), 14 days after application
Outline: (§1)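 Fourteen days after spraying, crop and weed injury was graded visually from 0, no effect, to 100, every plant dead. Test substances were dissolved in acetone and applied at 15–1000 g ai/ha with a flat-fan nozzle. Application was either pre-emergence, one day after sowing, or post-emergence at the 2–3 leaf stage.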

[2] = system: field corn (Zea mays L., var. Dekalb 535, CORN); experiment: Post-emerge test, crop safety; details: rating scale 0-100 (0 no damage, 100 complete death), 14 days after application
Outline: as §1

[3] = system: ivyleaf morningglory (Ipomoea hederacea, IPOHE); experiment: Post-emerge test, greenhouse herbicide activity screening; details: rating scale 0-100 (0 no damage, 100 complete death), 14 days after application
Outline: as §1

[4] = system: johnsongrass (Sorghum halepense, SORHA); experiment: as above; details: rating scale 0-100 (0 no damage, 100 complete death), 14 days after application
Outline: as §1

[5] = system: redroot pigweed (Amaranthus retroflexus, AMARE); experiment: as above; details: rating scale 0-100 (0 no damage, 100 complete death), 14 days after application
Outline: as §1

[6] = system: green foxtail (Setaria viridis, SETVI); experiment: as above; details: rating scale 0-100 (0 no damage, 100 complete death), 14 days after application
Outline: as §1

[7] = system: lambsquarters (Chenopodium album, CHEAL); experiment: as above; details: rating scale 0-100 (0 no damage, 100 complete death), 14 days after application
Outline: as §1

[8] = system: velvetleaf (Abutilon theophrasti, ABUTH); experiment: as above; details: rating scale 0-100 (0 no damage, 100 complete death), 14 days after application
Outline: as §1

[9] = system: large crabgrass (Digitaria sanguinalis, DIGSA); experiment: as above; details: rating scale 0-100 (0 no damage, 100 complete death), 14 days after application
Outline: as §1

[10] = system: sicklepod (Cassia obtusifolia, CASOB); experiment: as above; details: rating scale 0-100 (0 no damage, 100 complete death), 14 days after application
Outline: as §1

[11] = system: barnyardgrass (Echinochloa crus-galli, ECHCG); experiment: as above; details: rating scale 0-100 (0 no damage, 100 complete death), 14 days after application
Outline: as §1

[12] = system: upland rice (Oryza sp., var. Tebonnet, RICE); experiment: Pre-emerge test, crop safety; details: rating scale 0-100, 14 days after application
Outline: (§2)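 Compounds in acetone were track-sprayed at 15-1000 g ai/ha (187 l/ha) on sandy loam pots: pre-emerge one day after seeding, post-emerge at 2-3 leaf stage with 0.25% v/v non-ionic surfactant. Phytotoxicity was rated 14 days later on a 0 (no damage) to 100 (complete death) scale.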

[13] = system: field corn (Zea mays L., var. Dekalb 535, CORN); experiment: Pre-emerge test, crop safety; details: rating scale 0-100, 14 days after application
Outline: as §2

[14] = system: common ragweed (Ambrosia artemisizfolia L., AMBEL); experiment: Pre-emerge test, greenhouse herbicide activity screening; details: rating scale 0-100, 14 days after application
Outline: as §1

[15] = system: ivyleaf morningglory (Ipomoea hederacea, IPOHE); experiment: as above; details: rating scale 0-100, 14 days after application
Outline: as §1

[16] = system: johnsongrass (Sorghum halepense, SORHA); experiment: as above; details: rating scale 0-100, 14 days after application
Outline: as §1

[17] = system: green foxtail (Setaria viridis, SETVI); experiment: as above; details: rating scale 0-100, 14 days after application
Outline: as §1

[18] = system: lambsquarters (Chenopodium album, CHEAL); experiment: as above; details: rating scale 0-100, 14 days after application
Outline: as §1

[19] = system: velvetleaf (Abutilon theophrasti, ABUTH); experiment: as above; details: rating scale 0-100, 14 days after application
Outline: as §1

[20] = system: large crabgrass (Digitaria sanguinalis, DIGSA); experiment: as above; details: rating scale 0-100, 14 days after application
Outline: as §1

[21] = system: sicklepod (Cassia obtusifolia, CASOB); experiment: as above; details: rating scale 0-100, 14 days after application
Outline: as §1

[22] = system: barnyardgrass (Echinochloa crus-galli, ECHCG); experiment: as above; details: rating scale 0-100, 14 days after application
Outline: as §1

[23] = system: redroot pigweed (Amaranthus retroflexus, AMARE); experiment: as above; details: rating scale 0-100, 14 days after application
Outline: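 Plants grown in 10 cm pots of sandy loam mix received acetone-dissolved compounds through a moving flat-fan nozzle. Doses ranged from 15 to 1000 g ai/ha. Pre-emerge pots were seeded one day earlier, post-emerge pots 8–21 days earlier. Fourteen days on, each pot was graded 0–100 for damage.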

CCOC(=O)CCc1c(OC)c(Cl)cc(F)c1-n1c(=O)cc(C(F)(F)F)n(C)c1=O [14-1]
Post-emerge phytotoxicity rating RICE (crop damage) ([1]; Rate 63 g ai/ha): 40 | Post-emerge phytotoxicity rating RICE (crop damage) ([1]; Rate 250 g ai/ha): 80 | Post-emerge phytotoxicity rating CORN (crop damage) ([2]; Rate 63 g ai/ha): 85 | Post-emerge phytotoxicity rating CORN (crop damage) ([2]; Rate 250 g ai/ha): 100 | Post-emerge Herbicidal Activity, phytotoxicity rating IPOHE ([3]; Rate 63 g ai/ha): 85 | Post-emerge Herbicidal Activity, phytotoxicity rating IPOHE ([3]; Rate 250 g ai/ha): 100 | Post-emerge Herbicidal Activity, phytotoxicity rating SORHA ([4]; Rate 63 g ai/ha): 25 | Post-emerge Herbicidal Activity, phytotoxicity rating SORHA ([4]; Rate 250 g ai/ha): 75 | Post-emerge Herbicidal Activity, phytotoxicity rating AMARE ([5]; Rate 63 g ai/ha): 100 | Post-emerge Herbicidal Activity, phytotoxicity rating AMARE ([5]; Rate 250 g ai/ha): 100 | Post-emerge Herbicidal Activity, phytotoxicity rating SETVI ([6]; Rate 63 g ai/ha): 40 | Post-emerge Herbicidal Activity, phytotoxicity rating SETVI ([6]; Rate 250 g ai/ha): 70 | Post-emerge Herbicidal Activity, phytotoxicity rating CHEAL ([7]; Rate 63 g ai/ha): 80 | Post-emerge Herbicidal Activity, phytotoxicity rating CHEAL ([7]; Rate 250 g ai/ha): 98 | Post-emerge Herbicidal Activity, phytotoxicity rating ABUTH ([8]; Rate 63 g ai/ha): 85 | Post-emerge Herbicidal Activity, phytotoxicity rating ABUTH ([8]; Rate 250 g ai/ha): 98 | Post-emerge Herbicidal Activity, phytotoxicity rating DIGSA ([9]; Rate 63 g ai/ha): 80 | Post-emerge Herbicidal Activity, phytotoxicity rating DIGSA ([9]; Rate 250 g ai/ha): 95 | Post-emerge Herbicidal Activity, phytotoxicity rating CASOB ([10]; Rate 63 g ai/ha): 55 | Post-emerge Herbicidal Activity, phytotoxicity rating CASOB ([10]; Rate 250 g ai/ha): 70 | Post-emerge Herbicidal Activity, phytotoxicity rating ECHCG ([11]; Rate 63 g ai/ha): 85 | Post-emerge Herbicidal Activity, phytotoxicity rating ECHCG ([11]; Rate 250 g ai/ha): 95 | Pre-emerge phytotoxicity rating, crop damage RICE ([12]; 63 g ai/ha): 15 | Pre-emerge phytotoxicity rating, crop damage RICE ([12]; 250 g ai/ha): 45 | Pre-emerge phytotoxicity rating, crop damage CORN ([13]; 63 g ai/ha): 0 | Pre-emerge phytotoxicity rating, crop damage CORN ([13]; 250 g ai/ha): 10 | Pre-emerge herbicidal activity, phytotoxicity rating AMBEL ([14]; 63 g ai/ha): 0 | Pre-emerge herbicidal activity, phytotoxicity rating AMBEL ([14]; 250 g ai/ha): 0 | Pre-emerge herbicidal activity, phytotoxicity rating IPOHE ([15]; 63 g ai/ha): 30 | Pre-emerge herbicidal activity, phytotoxicity rating IPOHE ([15]; 250 g ai/ha): 75 | Pre-emerge herbicidal activity, phytotoxicity rating SORHA ([16]; 63 g ai/ha): 0 | Pre-emerge herbicidal activity, phytotoxicity rating SORHA ([16]; 250 g ai/ha): 90 | Pre-emerge herbicidal activity, phytotoxicity rating SETVI ([17]; 63 g ai/ha): 15 | Pre-emerge herbicidal activity, phytotoxicity rating SETVI ([17]; 250 g ai/ha): 55 | Pre-emerge herbicidal activity, phytotoxicity rating CHEAL ([18]; 63 g ai/ha): 98 | Pre-emerge herbicidal activity, phytotoxicity rating CHEAL ([18]; 250 g ai/ha): 100 | Pre-emerge herbicidal activity, phytotoxicity rating ABUTH ([19]; 63 g ai/ha): 75 | Pre-emerge herbicidal activity, phytotoxicity rating ABUTH ([19]; 250 g ai/ha): 100 | Pre-emerge herbicidal activity, phytotoxicity rating DIGSA ([20]; 63 g ai/ha): 40 | Pre-emerge herbicidal activity, phytotoxicity rating DIGSA ([20]; 250 g ai/ha): 85 | Pre-emerge herbicidal activity, phytotoxicity rating CASOB ([21]; 63 g ai/ha): 0 | Pre-emerge herbicidal activity, phytotoxicity rating CASOB ([21]; 250 g ai/ha): 0 | Pre-emerge herbicidal activity, phytotoxicity rating ECHCG ([22]; 63 g ai/ha): 15 | Pre-emerge herbicidal activity, phytotoxicity rating ECHCG ([22]; 250 g ai/ha): 30 | Pre-emerge herbicidal activity, phytotoxicity rating AMARE ([23]; 63 g ai/ha): 100 | Pre-emerge herbicidal activity, phytotoxicity rating AMARE ([23]; 250 g ai/ha): 100

COC(=O)C(Cl)Cc1c(OC)c(Cl)cc(F)c1-n1c(=O)cc(C(F)(F)F)n(C)c1=O (centres unmarked) [14-3]
Post-emerge phytotoxicity rating RICE (crop damage) ([1]; Rate 63 g ai/ha): 5 | Post-emerge phytotoxicity rating RICE (crop damage) ([1]; Rate 250 g ai/ha): 80 | Post-emerge phytotoxicity rating CORN (crop damage) ([2]; Rate 63 g ai/ha): 100 | Post-emerge phytotoxicity rating CORN (crop damage) ([2]; Rate 250 g ai/ha): 100 | Post-emerge Herbicidal Activity, phytotoxicity rating IPOHE ([3]; Rate 63 g ai/ha): 50 | Post-emerge Herbicidal Activity, phytotoxicity rating IPOHE ([3]; Rate 250 g ai/ha): 100 | Post-emerge Herbicidal Activity, phytotoxicity rating SORHA ([4]; Rate 63 g ai/ha): 80 | Post-emerge Herbicidal Activity, phytotoxicity rating SORHA ([4]; Rate 250 g ai/ha): 70 | Post-emerge Herbicidal Activity, phytotoxicity rating AMARE ([5]; Rate 63 g ai/ha): 95 | Post-emerge Herbicidal Activity, phytotoxicity rating AMARE ([5]; Rate 250 g ai/ha): 100 | Post-emerge Herbicidal Activity, phytotoxicity rating SETVI ([6]; Rate 63 g ai/ha): 30 | Post-emerge Herbicidal Activity, phytotoxicity rating SETVI ([6]; Rate 250 g ai/ha): 70 | Post-emerge Herbicidal Activity, phytotoxicity rating CHEAL ([7]; Rate 63 g ai/ha): 90 | Post-emerge Herbicidal Activity, phytotoxicity rating CHEAL ([7]; Rate 250 g ai/ha): 100 | Post-emerge Herbicidal Activity, phytotoxicity rating ABUTH ([8]; Rate 63 g ai/ha): 100 | Post-emerge Herbicidal Activity, phytotoxicity rating ABUTH ([8]; Rate 250 g ai/ha): 100 | Post-emerge Herbicidal Activity, phytotoxicity rating DIGSA ([9]; Rate 63 g ai/ha): 99 | Post-emerge Herbicidal Activity, phytotoxicity rating DIGSA ([9]; Rate 250 g ai/ha): 100 | Post-emerge Herbicidal Activity, phytotoxicity rating CASOB ([10]; Rate 63 g ai/ha): 10 | Post-emerge Herbicidal Activity, phytotoxicity rating CASOB ([10]; Rate 250 g ai/ha): 75 | Post-emerge Herbicidal Activity, phytotoxicity rating ECHCG ([11]; Rate 63 g ai/ha): 99 | Post-emerge Herbicidal Activity, phytotoxicity rating ECHCG ([11]; Rate 250 g ai/ha): 100 | Pre-emerge phytotoxicity rating, crop damage RICE ([12]; 63 g ai/ha): 0 | Pre-emerge phytotoxicity rating, crop damage RICE ([12]; 250 g ai/ha): 50 | Pre-emerge phytotoxicity rating, crop damage CORN ([13]; 63 g ai/ha): 0 | Pre-emerge phytotoxicity rating, crop damage CORN ([13]; 250 g ai/ha): 90 | Pre-emerge herbicidal activity, phytotoxicity rating AMBEL ([14]; 63 g ai/ha): 0 | Pre-emerge herbicidal activity, phytotoxicity rating AMBEL ([14]; 250 g ai/ha): 65 | Pre-emerge herbicidal activity, phytotoxicity rating IPOHE ([15]; 63 g ai/ha): 0 | Pre-emerge herbicidal activity, phytotoxicity rating IPOHE ([15]; 250 g ai/ha): 50 | Pre-emerge herbicidal activity, phytotoxicity rating SORHA ([16]; 63 g ai/ha): 0 | Pre-emerge herbicidal activity, phytotoxicity rating SORHA ([16]; 250 g ai/ha): 60 | Pre-emerge herbicidal activity, phytotoxicity rating SETVI ([17]; 63 g ai/ha): 40 | Pre-emerge herbicidal activity, phytotoxicity rating SETVI ([17]; 250 g ai/ha): 80 | Pre-emerge herbicidal activity, phytotoxicity rating CHEAL ([18]; 63 g ai/ha): 100 | Pre-emerge herbicidal activity, phytotoxicity rating CHEAL ([18]; 250 g ai/ha): 100 | Pre-emerge herbicidal activity, phytotoxicity rating ABUTH ([19]; 63 g ai/ha): 100 | Pre-emerge herbicidal activity, phytotoxicity rating ABUTH ([19]; 250 g ai/ha): 100 | Pre-emerge herbicidal activity, phytotoxicity rating DIGSA ([20]; 63 g ai/ha): 30 | Pre-emerge herbicidal activity, phytotoxicity rating DIGSA ([20]; 250 g ai/ha): 90 | Pre-emerge herbicidal activity, phytotoxicity rating CASOB ([21]; 63 g ai/ha): 20 | Pre-emerge herbicidal activity, phytotoxicity rating CASOB ([21]; 250 g ai/ha): 80 | Pre-emerge herbicidal activity, phytotoxicity rating ECHCG ([22]; 63 g ai/ha): 0 | Pre-emerge herbicidal activity, phytotoxicity rating ECHCG ([22]; 250 g ai/ha): 40 | Pre-emerge herbicidal activity, phytotoxicity rating AMARE ([23]; 63 g ai/ha): 100 | Pre-emerge herbicidal activity, phytotoxicity rating AMARE ([23]; 250 g ai/ha): 100
